In test [1] the test system is Escherichia coli. Kind of test: Antibacterial activity against Escherichia coli assessed as inhibition of bacterial growth. The test is classed as functional.
For test [2], the system named is Pseudomonas aeruginosa. Kind of test: Antibacterial activity against Pseudomonas aeruginosa assessed as inhibition of bacterial growth. The class given is functional.
The test system of test [3] is Staphylococcus aureus. The test can be described thus: Antibacterial activity against Staphylococcus aureus assessed as inhibition of bacterial growth. The test is classed as functional.
In test [4] the test system is Candida albicans. Kind of test: Antifungal activity against Candida albicans assessed as inhibition of fungal growth. The class given is functional.
Test [5] relates to Aspergillus niger. Kind of test: Antifungal activity against Aspergillus niger assessed as inhibition of fungal growth. The class given is functional.
Test [6] relates to Aspergillus flavus. Kind of test: Antifungal activity against Aspergillus flavus assessed as inhibition of fungal growth. The class given is functional.
Test [7] concerns HepG2. Kind of test: Anticancer activity against human HepG2 cells assessed as reduction in cell viability. The class given is functional, cell-based.
The subject of test [8] is PC-3. Kind of test: Anticancer activity against human PC-3 cells assessed as reduction in cell viability. The test is classed as functional, cell-based.
For test [9], the system named is HCT-116. The test can be described thus: cells. To be noted: Homo sapiens.
The test system of test [10] is Human immunodeficiency virus 1. Kind of test: Antiviral activity against HIV1 IIIB infected in human MT4 cells assessed as reduction in virus-induced cytopathic effect by MTT assay. The test is classed as functional, organism-based. The following applies: Human immunodeficiency virus 1, IIIB. Background: Cytopathic effects are the visible damage that an infection or toxin causes in cultured cells.

The test system of test [11] is Human immunodeficiency virus 2. The test can be described thus: Antiviral activity against HIV2 ROD infected in human MT4 cells assessed as reduction in virus-induced cytopathic effect by MTT assay. The class given is functional, organism-based. The following applies: Human immunodeficiency virus 2, ROD.
For test [12], the system named is Bacillus cereus. The test can be described thus: Antimicrobial activity against Bacillus cereus ATCC14579 assessed as diameter of inhibition zone at 20 mg/ml incubated for 24 hrs by disk diffusion method. The test is classed as functional. The following applies: read-out: DIZ. For orientation: A growth-free zone around the sample is the usual read-out of agar diffusion tests.

In test [13] the test system is Staphylococcus aureus. Kind of test: Antimicrobial activity against Staphylococcus aureus NCTC7447 assessed as diameter of inhibition zone at 20 mg/ml incubated for 24 hrs by disk diffusion method. To be noted: read-out: DIZ. The test is classed as functional.
Test [14] has as its system Klebsiella pneumoniae. The test can be described thus: Antimicrobial activity against Klebsiella pneumoniae UC57 assessed as diameter of inhibition zone at 20 mg/ml incubated for 24 hrs by disk diffusion method. The class given is functional. To be noted: read-out: DIZ.
Test [15] concerns Pseudomonas aeruginosa. The test can be described thus: Antimicrobial activity against Pseudomonas aeruginosa ATCC 27853 assessed as diameter of inhibition zone at 20 mg/ml incubated for 24 hrs by disk diffusion method. The test is classed as functional. To be noted: read-out: DIZ.
The test system of test [16] is Escherichia coli. The test can be described thus: Antimicrobial activity against Escherichia coli ATCC 14169 assessed as diameter of inhibition zone at 20 mg/ml incubated for 24 hrs by disk diffusion method. The test is classed as functional. The following applies: read-out: DIZ.
Test [17] deals with Staphylococcus aureus. The test can be described thus: Antibacterial activity against Staphylococcus aureus assessed as diameter of inhibition zone. The test is classed as functional.
In test [18] the test system is Bacillus subtilis. Kind of test: Antibacterial activity against Bacillus subtilis assessed as diameter of inhibition zone. The test is classed as functional.
For test [19], the system named is Escherichia coli. The test can be described thus: Antibacterial activity against Escherichia coli assessed as diameter of inhibition zone. The class given is functional.
For test [20], the system named is Salmonella typhimurium. The test can be described thus: Antibacterial activity against Salmonella typhimurium assessed as diameter of inhibition zone. The class given is functional, Salmonella enterica subsp. enterica serovar Typhimurium.
Test [21] deals with MCF7. The test can be described thus: Anticancer activity against human MCF7 cells assessed as reduction in cell viability. The test is classed as functional, cell-based.
Test [22] addresses Urease (Canavalia ensiformis, UniProt P07374). Kind of test: Inhibition of jack bean urease by phenol red method.
In test [23] the test system is Klebsiella pneumoniae. Kind of test: Antibacterial activity against Klebsiella pneumoniae MTCC 109 assessed as diameter of inhibition zone at 0.1 mg/ml incubated for 24 hrs by agar well diffusion method. The test is classed as functional. The following applies: read-out: DIZ.
In test [24] the test system is Staphylococcus aureus. Kind of test: Antibacterial activity against Staphylococcus aureus MTCC 87 assessed as diameter of inhibition zone at 0.1 mg/ml incubated for 24 hrs by agar well diffusion method. The following applies: read-out: DIZ. The test is classed as functional.
The target of test [25] is Alpha-glucosidase (Saccharomyces cerevisiae S288c, UniProt P53341+P38158+P07265). Kind of test: Inhibition of Saccharomyces cerevisiae alpha-glucosidase preincubated for 5 mins followed by PNP-GLUC substrate addition and measured after 20 mins by spectroscopic analysis. The class given is protein assay.
Test [26] deals with Albumin (Bos taurus, UniProt P02769). The test can be described thus: […] bovine serum albumin denaturation incubated for 23 mins by UV-Visible spectrophotometry.
A short description of test [27]: Inhibition of porcine pancreatic alpha-amylase preincubated for 10 mins followed by substrate starch addition and measured after 10 mins by colorimetric analysis. Also noted: species or system Sus scrofa.
Test [28] deals with A549. The test can be described thus: Anticancer activity against human A549 cells assessed as reduction in cell viability incubated for 24 hrs by MTT assay. The test is classed as functional, cell-based. To be noted: A549, 24 h. On the technique in general: Tetrazolium assays rely on reduction of a dye to a coloured formazan, in cell work by metabolically active cells.
Test [29] has as its target DNA topoisomerase II (Homo sapiens, UniProt P11388+Q02880). The test can be described thus: Inhibition of DNA topoisomerase 2 (unknown origin). The test is classed as protein assay.
The subject of test [30] is HCT-116. The test can be described thus: Anticancer activity against human HCT-116 cells assessed as reduction in cell viability incubated for 24 hrs by MTT colorimetric assay. The following applies: HCT-116, 24 h. The test is classed as functional, cell-based.
The subject of test [31] is HepG2. The test can be described thus: Anticancer activity against human HepG2 cells assessed as reduction in cell viability incubated for 24 hrs by MTT colorimetric assay. The test is classed as functional, cell-based. To be noted: HepG2, 24 h.
For test [32], the system named is MCF7. The test can be described thus: Anticancer activity against human MCF7 cells assessed as reduction in cell viability incubated for 24 hrs by MTT colorimetric assay. To be noted: MCF7, 24 h. The class given is functional, cell-based.
In test [33] the target is DNA. Kind of test: Binding affinity to DNA (unknown origin) assessed as DNA intercalation. The class given is nucleic-acid assay.
For test [34], the system named is Clostridium tetani. Kind of test: Antibacterial activity against Clostridium tetani MTCC 449 assessed as bacterial growth inhibition by broth microdilution method. The test is classed as functional.
The subject of test [35] is Salmonella typhimurium. The test can be described thus: Antibacterial activity against Salmonella typhimurium MTCC 98 assessed as bacterial growth inhibition by broth microdilution method. The test is classed as functional, Salmonella enterica subsp. enterica serovar Typhimurium. The following applies: Salmonella enterica.
Test [36] concerns Candida albicans. The test can be described thus: Antifungal activity against Candida albicans MTCC 3008 assessed as fungal growth inhibition by broth microdilution method. The test is classed as functional.
Test [37] relates to Aspergillus fumigatus. The test can be described thus: Antifungal activity against Aspergillus fumigatus MTCC 227 assessed as fungal growth inhibition by broth microdilution method. The test is classed as functional.
Test [38] has as its system Mycobacterium tuberculosis. The test can be described thus: Antitubercular activity against Mycobacterium tuberculosis H37Rv assessed as bacterial growth inhibition at 250 ug/ml. The class given is functional.
Test [39] deals with Mycobacterium tuberculosis. Kind of test: Antitubercular activity against Mycobacterium tuberculosis H37Rv assessed as bacterial growth inhibition at 100 ug/ml. The class given is functional.
Test [40] has as its system Plasmodium falciparum. The test can be described thus: microbe, parasite or virus in culture.

SMILES strings stand for the structures. ≈ marks a conversion by molar mass, not a printed value.

Chain of Urease (P07374 whole entry, the tested form may be a part): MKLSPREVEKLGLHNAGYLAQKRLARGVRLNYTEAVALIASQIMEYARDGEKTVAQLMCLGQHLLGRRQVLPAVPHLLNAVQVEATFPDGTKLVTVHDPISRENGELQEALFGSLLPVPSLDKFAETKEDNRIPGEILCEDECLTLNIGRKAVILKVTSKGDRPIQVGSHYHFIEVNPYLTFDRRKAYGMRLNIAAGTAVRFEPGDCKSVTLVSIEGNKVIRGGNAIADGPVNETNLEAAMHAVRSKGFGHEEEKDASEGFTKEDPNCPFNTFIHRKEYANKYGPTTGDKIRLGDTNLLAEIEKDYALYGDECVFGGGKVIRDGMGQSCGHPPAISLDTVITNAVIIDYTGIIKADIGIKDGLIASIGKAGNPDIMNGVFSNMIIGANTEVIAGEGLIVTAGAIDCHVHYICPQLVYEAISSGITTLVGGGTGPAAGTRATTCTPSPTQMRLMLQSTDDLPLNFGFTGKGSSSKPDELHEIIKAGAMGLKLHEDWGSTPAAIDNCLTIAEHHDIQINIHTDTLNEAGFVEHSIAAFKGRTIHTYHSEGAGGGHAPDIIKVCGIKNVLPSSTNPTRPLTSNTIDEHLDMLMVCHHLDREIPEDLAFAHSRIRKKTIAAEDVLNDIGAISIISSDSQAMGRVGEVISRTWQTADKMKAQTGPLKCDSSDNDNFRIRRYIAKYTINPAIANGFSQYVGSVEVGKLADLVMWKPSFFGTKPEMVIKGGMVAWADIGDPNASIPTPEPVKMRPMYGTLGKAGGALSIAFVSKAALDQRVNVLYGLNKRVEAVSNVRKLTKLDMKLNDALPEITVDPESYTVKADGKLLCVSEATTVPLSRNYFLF
Chain of Albumin (P02769 whole entry): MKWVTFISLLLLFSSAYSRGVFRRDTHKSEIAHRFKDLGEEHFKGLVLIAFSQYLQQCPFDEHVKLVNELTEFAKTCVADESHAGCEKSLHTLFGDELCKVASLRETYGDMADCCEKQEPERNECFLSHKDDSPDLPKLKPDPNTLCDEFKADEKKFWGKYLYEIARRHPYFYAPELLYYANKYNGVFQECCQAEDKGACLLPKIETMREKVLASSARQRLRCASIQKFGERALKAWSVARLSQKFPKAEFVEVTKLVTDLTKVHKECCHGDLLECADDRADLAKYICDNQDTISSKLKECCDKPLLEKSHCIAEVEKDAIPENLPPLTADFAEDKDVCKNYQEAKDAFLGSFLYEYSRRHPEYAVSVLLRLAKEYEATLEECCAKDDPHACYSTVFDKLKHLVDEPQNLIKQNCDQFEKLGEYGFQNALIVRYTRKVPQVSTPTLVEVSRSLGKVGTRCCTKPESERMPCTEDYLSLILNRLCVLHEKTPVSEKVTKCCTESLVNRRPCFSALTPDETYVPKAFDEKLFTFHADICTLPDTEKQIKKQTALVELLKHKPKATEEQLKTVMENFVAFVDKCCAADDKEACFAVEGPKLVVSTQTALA

For `N#CC1=C(N)Oc2[nH]c(=O)[nH]c(=O)c2C1Cc1ccccc1` (stereo not given), the MIC (as a rule, the lowest concentration found to suppress growth) came to 25 µg/mL (≈ 84.4 µM) in test [1]; 87.5 µg/mL (≈ 295 µM) in test [2]; 25 µg/mL (≈ 84.4 µM) in [3]; 125 µg/mL (≈ 422 µM) in [4]; 162 µg/mL (≈ 548 µM) in test [5]; 150 µg/mL (≈ 506 µM) in test [6].
With `CC(=O)C1=C(C)Oc2[nH]c(=O)[nH]c(=O)c2C1c1cccc([N+](=O)[O-])c1` (stereo not given), the IC50 (as a rule, the concentration that gives 50% inhibition) was determined as 5.21 µg/mL in test [7], 4.8 µg/mL (≈ 14 µM) in [8] and 7.65 µg/mL in [9].
As for `Cc1cn([C@H]2C[C@H](N=[N+]=[N-])[C@@H](CO)O2)c(=O)[nH]c1=O` [ZIDOVUDINE], the EC50 (commonly the concentration giving half of the maximal effect) was 0.0022 µg/mL (≈ 0.00823 µM) in [10] and 0.00094 µg/mL (≈ 0.00352 µM) in [11].
Regarding `COc1ccc(C2C(C#N)=C(N)Oc3[nH]c(=O)[nH]c(=O)c32)cc1` (stereo not given), the zone of inhibition at 20000 µg/mL in [12] was 11 mm; in test [13] it was 14 mm; in test [14] it was 14 mm; in test [15], 5 mm; in test [16], 8 mm. Further, the “diameter of the inhibition zone (DIZ)” value is recorded as 10 mm in [17], 12 mm in test [18], 10 mm in [19] and 8 mm in [20]. Also, the minimal inhibitory concentration (MIC) in test [1] amounted to 25 µg/mL (≈ 80.1 µM); in [2], 25 µg/mL (≈ 80.1 µM); in [4], 125 µg/mL (≈ 400 µM); in test [5], 162 µg/mL (≈ 520 µM); in test [6] it was 150 µg/mL (≈ 480 µM). The IC50 in test [7] is 2.09 µM; in test [21], 2.43 µM; in test [22] it was 62.9 µM; in [9], 2.61 µM.
Take `N#CC1=C(N)Oc2[nH]c(=O)[nH]c(=O)c2C1c1ccccc1O` (stereo not given): the MIC worked out at 75 µg/mL (≈ 251 µM) in test [1]; 25 µg/mL (≈ 83.8 µM) in test [2]; 25 µg/mL (≈ 83.8 µM) in [3]; 125 µg/mL (≈ 419 µM) in test [4]; 162 µg/mL (≈ 545 µM) in test [5]; 150 µg/mL (≈ 503 µM) in test [6].
As to `O=C(C1=C(c2ccccc2O)Oc2[nH]c(=S)[nH]c(=O)c2C1c1ccc(F)cc1)N1CCCCC1` (stereo not given), the zone of inhibition at 100 µg/mL in test [23] was found to be 9.2 mm; in test [24] it was 10.5 mm. Besides, the IC50 in test [25] was 4101 µM; in [26] it was 12.3 µM; in test [27], 42.8 µM.
`COc1cccc2c1C(=O)c1c(O)c3c(c(O)c1C2=O)C[C@@](O)(C(=O)CO)C[C@@H]3O[C@H]1C[C@H](N)[C@H](O)[C@H](C)O1` [DOXORUBICIN]: the 50% inhibitory concentration (IC50) was determined as 0.14 µM in test [28]; 7.94 µM in test [7]; 0.94 µM in test [29]; 0.467 µg/mL (≈ 0.859 µM) in test [8]; 0.467 µM in [30]; 0.467 µM in [31]. Further, the IC50 is 0.467 µM in test [32] and 2.61 µM in test [9].
As to `COc1ccc(C2c3c([nH]c(=O)[nH]c3=O)Oc3ncn(-c4ccccc4O)c(=N)c32)cc1` (stereo not given), the IC50 in [7] came to 2.09 µM; in test [21], 2.43 µM; in test [29], 0.776 µM; in [33], 29.9 µM; in test [9] it was 2.61 µM.
As for `Cc1nn(-c2ccccc2)c(-n2ccnc2)c1C1C(C#N)=C(N)Oc2c1c(=O)n(C)c(=O)n2C` (stereo not given), the minimum inhibitory concentration (MIC) was 100 µg/mL (≈ 219 µM) in test [34], 100 µg/mL (≈ 219 µM) in test [35], 500 µg/mL (≈ 1100 µM) in [36] and 200 µg/mL (≈ 438 µM) in [37]. In addition, in test [38], the inhibition (usually the share of the control response that was lost under treatment) at 250 µg/mL came out at 37%. Further, the inhibition at 100 µg/mL in test [39] is 30%. The compound further yielded an IC50 in test [40] of 0.082 µg/mL (≈ 0.18 µM).
